According to patent US9096591B2, “Tetracyclic compounds” (Medivation Technologies, Inc., priority 2007, dated 2015):

Legend:
[1] = target: T1, human recombinant histamine H2 receptor (Homo sapiens, UniProt P25021); assay: Histamine H2 radioligand binding ([125I]Aminopotentidine); conditions: for inhibition at 1 µM: compounds screened at 1 μM, read-out: Inhibition of ligand binding, Hist. H2 (percent inhibition of specific binding)
T1 construct: expressed in transfected cells; host or cells: CHO-K1 cells
In short: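 Test compounds were assessed for their ability to displace radioligand from the human recombinant histamine H2 receptor. Non-specific binding was determined in the presence of 3 μM Tiotidine, and results were expressed as percent inhibition of specific binding, with 1% DMSO serving as the vehicle.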

[2] = target: T2, human recombinant adrenergic α2A receptor (Homo sapiens, UniProt P08913); assay: Adrenergic α2A radioligand binding ([3H]MK-912); conditions: for inhibition at 1 µM: compounds screened at 1 μM, read-out: Inhibition of ligand binding, Adren. alpha2A (percent inhibition of specific binding)
T2 construct: expressed in transfected cells; host or cells: insect Sf9 cells
T2 sequence (P08913 1-465): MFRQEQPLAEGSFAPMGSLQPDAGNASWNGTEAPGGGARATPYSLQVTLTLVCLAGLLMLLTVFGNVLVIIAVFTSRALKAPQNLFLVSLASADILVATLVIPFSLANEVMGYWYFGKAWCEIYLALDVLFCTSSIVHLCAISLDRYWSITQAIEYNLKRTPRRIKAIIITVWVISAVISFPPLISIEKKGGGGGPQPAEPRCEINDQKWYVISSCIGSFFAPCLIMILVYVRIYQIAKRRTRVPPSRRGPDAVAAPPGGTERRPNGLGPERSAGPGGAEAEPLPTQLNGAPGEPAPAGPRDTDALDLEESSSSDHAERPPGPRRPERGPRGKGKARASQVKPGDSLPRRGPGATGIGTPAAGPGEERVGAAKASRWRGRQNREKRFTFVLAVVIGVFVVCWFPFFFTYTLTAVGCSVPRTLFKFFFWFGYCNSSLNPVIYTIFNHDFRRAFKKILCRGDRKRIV
In short: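 Membranes from Sf9 cells expressing the receptor were incubated with 1 nM [3H]MK-912 for 60 minutes at 25° C in 50 mM Tris-HCl pH 7.4, 12.5 mM MgCl2, 2 mM EDTA. 10 μM WB-4101 defined non-specific binding. Values are percent inhibition of specific bound radioactivity after filtration.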

[3] = target: T3, human recombinant serotonin (5-Hydroxytryptamine) 5-HT6 receptor (Homo sapiens, UniProt P50406); assay: Serotonin 5-HT6 radioligand binding ([3H]LSD); conditions: for inhibition at 1 µM: compounds screened at 1 μM, read-out: Inhibition of ligand binding, Ser. 5-HT6 (percent inhibition of specific binding)
T3 construct: expressed in transfected cells; host or cells: human HeLa cells
Excerpt: Receptor proteins were filtered and washed, the filters were then counted to determine [3H]LSD specifically bound. […] Biochemical assay results are presented as the percent inhibition of specific binding in Table 6.

[4] = target: T4, human recombinant adrenergic α2B receptor (Homo sapiens, UniProt P18089); assay: Adrenergic α2B radioligand binding ([3H]Rauwolscine); conditions: for inhibition at 1 µM: compounds screened at 1 μM, read-out: Inhibition of ligand binding, Adren. alpha2B (percent inhibition of specific binding)
T4 construct: expressed in transfected cells; host or cells: CHO-K1 cells
T4 sequence (P18089 1-450): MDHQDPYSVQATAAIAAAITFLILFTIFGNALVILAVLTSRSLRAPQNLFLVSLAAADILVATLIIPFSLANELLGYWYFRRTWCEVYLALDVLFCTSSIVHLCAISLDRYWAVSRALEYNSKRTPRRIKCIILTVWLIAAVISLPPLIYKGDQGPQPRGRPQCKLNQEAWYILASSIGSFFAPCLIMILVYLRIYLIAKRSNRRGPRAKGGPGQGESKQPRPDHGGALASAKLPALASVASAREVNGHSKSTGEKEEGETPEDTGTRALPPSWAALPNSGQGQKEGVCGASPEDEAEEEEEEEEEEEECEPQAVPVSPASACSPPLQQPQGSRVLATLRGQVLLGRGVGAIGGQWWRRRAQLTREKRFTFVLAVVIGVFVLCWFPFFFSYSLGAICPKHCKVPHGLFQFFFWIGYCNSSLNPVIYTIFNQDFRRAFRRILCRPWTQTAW
In short: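 Membranes from CHO-K1 cells expressing the receptor, in 50 mM Tris-HCl pH 7.4 with 12.5 mM MgCl2, 1 mM EDTA, 0.2% BSA, incubated with compounds and 2.5 nM [3H]Rauwolscine for 60 minutes at 25 °C.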

[5] = target: T5, human recombinant histamine H1 receptor (Homo sapiens, UniProt P35367); assay: Histamine H1 radioligand binding ([3H]Pyrilamine); conditions: for inhibition at 1 µM: compounds screened at 1 μM, read-out: Inhibition of ligand binding, Hist. H1 (percent inhibition of specific binding)
T5 construct: expressed in transfected cells; host or cells: CHO cells
In short: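 Receptor expressed in CHO cells, assayed in 50 mM Tris-HCl pH 7.4 with 2 mM MgCl2, 100 mM NaCl, 250 mM sucrose. Compounds tested at 1 μM in 1% DMSO; non-specific binding set with 1 μM pyrilamine. Filter-bound radioactivity counted; values are percent inhibition of specific binding.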

T1 sequence (P25021 whole entry): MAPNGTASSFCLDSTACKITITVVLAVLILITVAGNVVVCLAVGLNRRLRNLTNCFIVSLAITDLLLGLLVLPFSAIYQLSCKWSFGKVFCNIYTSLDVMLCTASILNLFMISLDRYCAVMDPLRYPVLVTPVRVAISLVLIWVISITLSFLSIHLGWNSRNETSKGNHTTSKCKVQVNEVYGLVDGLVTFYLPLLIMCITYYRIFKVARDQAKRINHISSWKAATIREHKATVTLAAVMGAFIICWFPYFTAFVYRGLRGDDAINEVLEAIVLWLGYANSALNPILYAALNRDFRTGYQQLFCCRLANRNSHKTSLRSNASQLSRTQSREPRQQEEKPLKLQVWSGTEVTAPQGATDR
T5 sequence (P35367 whole entry): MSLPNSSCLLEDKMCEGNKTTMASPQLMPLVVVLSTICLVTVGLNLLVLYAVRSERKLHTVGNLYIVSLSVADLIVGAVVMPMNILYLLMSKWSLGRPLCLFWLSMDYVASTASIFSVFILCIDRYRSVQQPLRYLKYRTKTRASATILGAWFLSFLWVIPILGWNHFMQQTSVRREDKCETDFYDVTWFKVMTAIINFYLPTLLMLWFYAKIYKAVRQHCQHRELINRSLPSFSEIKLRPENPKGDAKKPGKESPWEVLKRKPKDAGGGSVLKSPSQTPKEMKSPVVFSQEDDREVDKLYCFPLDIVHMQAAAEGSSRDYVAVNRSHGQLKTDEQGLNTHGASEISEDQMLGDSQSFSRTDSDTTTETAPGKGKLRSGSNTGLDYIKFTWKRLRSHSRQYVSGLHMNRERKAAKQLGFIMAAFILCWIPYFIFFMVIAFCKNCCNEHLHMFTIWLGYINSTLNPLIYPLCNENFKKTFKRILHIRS
T3 sequence (P50406 whole entry): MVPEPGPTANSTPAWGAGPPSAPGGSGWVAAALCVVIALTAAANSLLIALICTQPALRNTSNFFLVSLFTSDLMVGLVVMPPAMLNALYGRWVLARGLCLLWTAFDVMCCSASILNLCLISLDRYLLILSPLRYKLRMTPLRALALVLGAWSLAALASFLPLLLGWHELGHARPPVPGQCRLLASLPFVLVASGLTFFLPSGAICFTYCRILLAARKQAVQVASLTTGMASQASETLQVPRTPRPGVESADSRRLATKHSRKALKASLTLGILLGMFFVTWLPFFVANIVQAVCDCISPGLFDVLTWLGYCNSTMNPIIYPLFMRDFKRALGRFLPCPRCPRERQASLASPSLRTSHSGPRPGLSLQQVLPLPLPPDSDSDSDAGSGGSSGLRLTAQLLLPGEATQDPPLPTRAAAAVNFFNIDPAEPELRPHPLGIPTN

| SMILES | inhibition at 1 µM [1] [%] | inhibition at 1 µM [2] [%] | inhibition at 1 µM [3] [%] | inhibition at 1 µM [4] [%] | inhibition at 1 µM [5] [%] | Hist. H2 ([1]; inhibition profile) | Adren. alpha2A ([2]; inhibition profile) | Ser. 5-HT6 ([3]; inhibition profile) | Adren. alpha2B ([4]; inhibition profile) | Hist. H1 ([5]; inhibition profile) |
| --- | --- | --- | --- | --- | --- | --- | --- | --- | --- | --- |
| CN1CCc2c(c3ncccc3n2CCc2ccncc2)C1 [Compound 482, 9-aza-2-methyl-5-(2-(pyridin-4-yl)ethyl)-2,3,4,5-tetrahydro-1H-pyrido[4,3-b]indole] | -9 | -17 | 4 | 10 | -2 | – | – | – | – | – |
| CN1CCc2c(c3ccncc3n2CCc2ccncc2)C1 [Compound 483, 7-aza-2-methyl-5-(2-(pyridin-4-yl)ethyl)-2,3,4,5-tetrahydro-1H-pyrido[4,3-b]indole] | -7 | -7 | 13 | 12 | -5 | – | – | – | – | – |
| CN1CCc2c(c3ncccc3n2CCc2ccccn2)C1 [Compound 484, 9-aza-2-methyl-5-(2-(pyridin-2-yl)ethyl)-2,3,4,5-tetrahydro-1H-pyrido[4,3-b]indole] | -4 | 28 | 14 | 30 | 7 | – | – | – | – | – |
| Cc1ccc(CCn2c3c(c4cc(I)ccc42)CN(C)CC3)cn1 [Compound 485, 2,3,4,5-tetrahydro-8-iodo-2-methyl-5-(2-(6-methylpyridin-3-yl)ethyl)-1H-pyrido[4,3-b]indole] | 71 | 86 | 94 | 98 | 105 | – | – | – | – | – |
| CN1CCc2c(c3cc(I)ccc3n2CC(=O)N2CCCCC2)C1 [Compound 486, 2-(1,2,3,4-tetrahydro-8-iodo-2-methylpyrido[4,3-b]indol-5-yl)-1-(piperidin-1-yl)ethanone] | 11 | 4 | 14 | 7 | 28 | – | – | – | – | – |
| Cc1ccc(CCn2c3c(c4cc(Br)ccc42)CN(C)CC3)cn1 [Compound 487, 8-bromo-2-methyl-5-(2-(6-methylpyridin-3-yl)ethyl)-2,3,4,5-tetrahydro-1H-pyrido[4,3-b]indole] | 80 | 88 | 94 | 100 | 98 | – | – | – | – | – |
| CN1CCc2c(c3cc(Br)ccc3n2CC(=O)N2CCCCC2)C1 [Compound 516, 2-(8-bromo-2-methyl-3,4-dihydro-1H-pyrido[4,3-b]indol-5(2H)-yl)-1-(piperidin-1-yl)ethanone] | 12 | 3 | 9 | 21 | 49 | – | – | – | – | – |
| Cc1ccc2c(c1)c1c(n2CCc2nc(-c3ccccc3)cs2)CCN(C)C1 [Compound C1-5] | 73 | 92 | 101 | 113 | 100 | – | – | – | – | – |
| COc1ccc2c(c1)c1c(n2CCc2nc(-c3ccccc3)cs2)CCN(C)C1 [Compound C1-6] | 21 | 55 | 84 | 110 | 104 | – | – | – | – | – |
| CN1CCc2c(c3cc(F)ccc3n2CCc2nc(-c3ccccc3)cs2)C1 [Compound C1-7] | 55 | 88 | 91 | 113 | 99 | – | – | – | – | – |
| CN1CCc2c(c3ccccc3n2CCc2noc(-c3ccccc3)n2)C1 [Compound C4-1] | 47 | 95 | 51 | 94 | 93 | – | – | – | – | – |
| Cc1ccc2c(c1)c1c(n2CCc2noc(-c3ccccc3)n2)CCN(C)C1 [Compound C4-4] | 68 | 96 | 103 | 102 | 101 | – | – | – | – | – |
| CN1CCc2c(c3cc(Cl)ccc3n2CCc2noc(-c3ccccc3)n2)C1 [Compound C4-6] | 68 | 96 | 105 | 94 | 100 | – | – | – | – | – |
| Cc1ccc2c(c1)c1c(n2CCc2ccc(C)nc2)CC[N+](C)([O-])C1 (stereo not shown) [Example 93, 2,8-dimethyl-5-(2-(6-methylpyridin-3-yl)ethyl)-2,3,4,5-tetrahydro-1H-pyrido[4,3-b]indole 2-oxide] | – | – | – | – | – | 19 | 1 | 11 | 36 | 68 |
